From the supplement of paper PMC11061612

Columns and labels:
[1] = compound: O=c1[nH]cc(F)c(=O)[nH]1 [5-Fluorouracil]; conditions: max 20 µM
In short: (§1)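 After 24 hours at 37°C and 5% CO2 in 1536-well plates holding 7.5 μl of DMEM/F12 or RPMI with 10% FBS, cancer cell lines were dosed for 72 hours, with final DMSO typically 0.2%. Viability came from CellTiter-Glo 2.0 luminescence, scaled between the means of blank wells and DMSO wells. A non-linear mixed effects model fitted a two-parameter logistic curve to each dose response to give the single-agent IC50.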

[2] = compound: C=CCn1c(=O)c2cnc(Nc3ccc(N4CCN(C)CC4)cc3)nc2n1-c1cccc(C(C)(C)O)n1 [AZD1775]; conditions: max 3 µM
In short: as §1

[3] = compound: N#Cc1cnc(Nc2cc(NC[C@H]3CNCCO3)c(C(F)(F)F)cn2)cn1 [SRA737]; conditions: max 10 µM
In short: as §1

[4] = compound: Cc1c2c(nn1C)CSCc1cc(n(C)n1)CSc1cc(c3ccccc3c1)OCCCc1c(C(=O)O)n(C)c3c-2c(Cl)ccc13 [AZD5991]; conditions: max 1 µM
In short: as §1

[5] = compound: Nc1ccn([C@@H]2O[C@H](CO)[C@@H](O)C2(F)F)c(=O)n1 [Gemcitabine]; conditions: max 0.3 µM
In short: as §1

[6] = compound: C1CC(C1)(C(=O)[O-])C(=O)[O-].N.N.[Pt+2] [Carboplatin]; conditions: max 10 µM
In short: as §1

[7] = compound: C[C@@H](c1ccc2nccn2c1)n1nnc2ncc(-c3cnn(C)c3)nc21 [Savolitinib]; conditions: max 1 µM
In short: as §1

[8] = compound: C[C@@H](Nc1cc(F)cc(F)c1)c1cc(C(=O)N(C)C)cc2c(=O)cc(N3CCOCC3)oc12 [AZD8186]; conditions: max 10 µM
In short: as §1

[9] = compound: C[C@@H]1COCCN1C2=NC(=NC(=C2)C3(CC3)[S@](=N)(=O)C)C4=C5C=CNC5=NC=C4 [AZD6738]; conditions: max 10 µM
In short: as §1

[10] = compound: Cc1cc2ncnn2cc1Nc1ncc2c(n1)n(C1CCOCC1)c(=O)n2C [AZD7648]; conditions: max 10 µM
In short: as §1

[11] = compound: COc1nnc2ccc(N3CCC(c4ccc(OCCN5CCN(C)C(=O)[C@H]5C)cc4)CC3)nn12 [AZD5153]; conditions: max 1 µM
In short: as §1

[12] = compound: CC1=C(C(=CC=C1)Cl)NC(=O)C2=CN=C(S2)NC3=CC(=NC(=N3)C)N4CCN(CC4)CCO [Dasatinib]; conditions: max 2 µM
In short: as §1

[13] = compound: O=C(c1cc(Cc2n[nH]c(=O)c3ccccc23)ccc1F)N1CCN(C(=O)C2CC2)CC1 [Olaparib]; conditions: max 10 µM
In short: as §1

[14] = compound: CCc1c2c(nc3ccc(O)cc13)-c1cc3c(c(=O)n1C2)COC(=O)[C@]3(O)CC [SN-38]; conditions: max 0.3 µM
In short: as §1

[15] = compound: O=C(Nc1ccc2[nH]nc(-c3ccncc3)c2c1)[C@@H]1CCN(CC(=O)N2CCN(c3ccc(-c4ncccn4)cc3)CC2)C1; conditions: max 5 µM
In short: as §1

[16] = compound: C[C@@H](Oc1cc(-c2cnn(C3CCNCC3)c2)cnc1N)c1c(Cl)ccc(F)c1Cl [Crizotinib]; conditions: max 10 µM
In short: as §1

[17] = compound: CC(=O)O[C@H]1C(=O)[C@@]2(C)[C@H]([C@H](OC(=O)c3ccccc3)[C@]3(O)C[C@H](OC(=O)[C@H](O)[C@@H](NC(=O)c4ccccc4)c4ccccc4)C(C)=C1C3(C)C)[C@]1(OC(C)=O)CO[C@@H]1C[C@@H]2O [Paclitaxel]; conditions: max 3 µM
In short: as §1

[18] = compound: C1CN(CCC1(C(=O)N[C@@H](CCO)C2=CC=C(C=C2)Cl)N)C3=NC=NC4=C3C=CN4 [AZD5363]; conditions: max 10 µM
In short: as §1

[19] = compound: CC1=CN2[C@@H](C1)C=NC3=CC(=C(C=C3C2=O)OC)OCCCCCOC4=C(C=C5C(=C4)N=C[C@@H]6CC(=CN6C5=O)C)OC [SG3199]; conditions: max 0.001 µM
In short: as §1

[20] = compound: Cc1nc(-c2cn3c(n2)-c2ccc(-c4cnn(C(C)(C)C(N)=O)c4)cc2OCC3)n(C(C)C)n1 [Taselisib]; conditions: max 10 µM
In short: as §1

[21] = compound: CC1(C)CCC(CN2CCN(c3ccc(C(=O)NS(=O)(=O)c4ccc(NCC5CCOCC5)c([N+](=O)[O-])c4)c(Oc4cnc5[nH]ccc5c4)c3)CC2)=C(c2ccc(Cl)cc2)C1 [Venetoclax]; conditions: max 1 µM
In short: as §1

[22] = compound: CN(C)CCCOc1ccc(-c2ccc3ncc4c(c3c2)n(C2CCOCC2)c(=O)n4C)cn1 [AZD0156]; conditions: max 3 µM
In short: as §1

[23] = compound: COc1cc2ncnc(Nc3ccc(F)c(Cl)c3)c2cc1OCCCN1CCOCC1 [Gefitinib]; conditions: max 10 µM
In short: as §1

[24] = compound: CCN(CCO)CCCOc1ccc2c(Nc3cc(CC(=O)Nc4cccc(F)c4)[nH]n3)ncnc2c1 [AZD2811]; conditions: max 1 µM
In short: as §1

[25] = compound: COc1cc([C@@H]2c3cc4c(cc3[C@@H](O[C@@H]3O[C@@H]5CO[C@@H](C)O[C@H]5[C@H](O)[C@H]3O)[C@H]3COC(=O)[C@H]23)OCO4)cc(OC)c1O [Etoposide]; conditions: max 10 µM
In short: as §1

[26] = compound: COc1cc(Nc2ncc3c(n2)-c2ccc(Cl)cc2C(c2c(F)cccc2OC)=NC3)ccc1C(=O)O [Alisertib]; conditions: max 10 µM
In short: as §1

[27] = compound: COc1cccc(OCCCN)c1-c1cc(Nc2cnc(C#N)cn2)n[nH]1 [Prexasertib]; conditions: max 1 µM
In short: as §1

[28] = compound: CC(C)n1c(=O)n(C)c2cnc3cc(F)c(-c4ccc(OCCCN5CCCCC5)nc4)cc3c21 [AZD1390]; conditions: max 0.3 µM
In short: as §1

[29] = compound: COc1cccc2c1C(=O)c1c(O)c3c(c(O)c1C2=O)C[C@@](O)(C(=O)CO)C[C@@H]3O[C@H]1C[C@H](N)[C@H](O)[C@H](C)O1 [Doxorubicin]; conditions: max 1 µM
In short: as §1

[30] = compound: Cn1cnc2c(F)c(Nc3ccc(Br)cc3Cl)c(C(=O)NOCCO)cc21 [Selumetinib]; conditions: max 10 µM
In short: as §1

[31] = compound: NC1(c2ccc(-c3nc4ccn5c(=O)[nH]nc5c4cc3-c3ccccc3)cc2)CCC1 [MK-2206]; conditions: max 10 µM
In short: as §1

[32] = compound: CC(=O)c1c(C)c2cnc(Nc3ccc(N4CCNCC4)cn3)nc2n(C2CCCC2)c1=O [Palbociclib]; conditions: max 10 µM
In short: as §1

[33] = compound: CS(=O)(=O)CCNCc1ccc(-c2ccc3ncnc(Nc4ccc(OCc5cccc(F)c5)c(Cl)c4)c3c2)o1 [Lapatinib]; conditions: max 10 µM
In short: as §1

[34] = compound: CN(CC[C@H](CSC1=CC=CC=C1)NC2=C(C=C(C=C2)S(=O)(=O)NC(=O)C3=CC=C(C=C3)N4CCC(CC4)[C@H](C5=CC=CC=C5C6=CC=C(C=C6)Cl)O)S(=O)(=O)C(F)(F)F)CCO [AZD4320]; conditions: max 1 µM
In short: as §1

[35] = compound: CC(=O)Nc1cccc(-n2c(=O)n(C3CC3)c(=O)c3c(Nc4ccc(I)cc4F)n(C)c(=O)c(C)c32)c1 [Trametinib]; conditions: max 1 µM
In short: as §1

Row | Cell Line | IC50, cell viability 72 h [1] [nM] | IC50, cell viability 72 h [2] [nM] | IC50, cell viability 72 h [3] [nM] | IC50, cell viability 72 h [4] [nM] | IC50, cell viability 72 h [5] [nM] | IC50, cell viability 72 h [6] [nM] | IC50, cell viability 72 h [7] [nM] | IC50, cell viability 72 h [8] [nM] | IC50, cell viability 72 h [9] [nM] | IC50, cell viability 72 h [10] [nM] | IC50, cell viability 72 h [11] [nM] | IC50, cell viability 72 h [12] [nM] | IC50, cell viability 72 h [13] [nM] | IC50, cell viability 72 h [14] [nM] | IC50, cell viability 72 h [15] [nM] | IC50, cell viability 72 h [16] [nM] | IC50, cell viability 72 h [17] [nM] | IC50, cell viability 72 h [18] [nM] | IC50, cell viability 72 h [19] [nM] | IC50, cell viability 72 h [20] [nM] | IC50, cell viability 72 h [21] [nM] | IC50, cell viability 72 h [22] [nM] | IC50, cell viability 72 h [23] [nM] | IC50, cell viability 72 h [24] [nM] | IC50, cell viability 72 h [25] [nM] | IC50, cell viability 72 h [26] [nM] | IC50, cell viability 72 h [27] [nM] | IC50, cell viability 72 h [28] [nM] | IC50, cell viability 72 h [29] [nM] | IC50, cell viability 72 h [30] [nM] | IC50, cell viability 72 h [31] [nM] | IC50, cell viability 72 h [32] [nM] | IC50, cell viability 72 h [33] [nM] | IC50, cell viability 72 h [34] [nM] | IC50, cell viability 72 h [35] [nM]
1 | SW1990 (Pancreatic Carcinoma) | > 20000 | > 3000 | 9750 | > 1000 | > 300 | > 10000 | > 1000 | > 10000 | > 10000 | > 10000 | > 1000 | > 2000 | > 10000 | > 300 | > 5000 | > 10000 | > 3000 | > 10000 | > 1 | > 10000 | > 1000 | > 3000 | > 10000 | > 1000 | > 10000 | > 10000 | 49.9 | > 300 | > 1000 | > 10000 | > 10000 | > 10000 | > 10000 | > 1000 | > 1000
2 | NALM-6 (B-Lymphoblastic Leukemia) | > 20000 | 509 | 2310 | > 1000 | 3.63 | > 10000 | > 1000 | 1220 | 1050 | > 10000 | 31.9 | 1140 | > 10000 | 5.89 | > 5000 | 1170 | 5.65 | 1370 | > 1 | 293 | 380 | > 3000 | > 10000 | 57 | 302 | 238 | 11.7 | > 300 | 106 | > 10000 | 816 | 1410 | 8220 | 146 | > 1000
3 | NCI-H2595 (Mesothelioma) | > 20000 | > 3000 | > 10000 | > 1000 | > 300 | > 10000 | > 1000 | > 10000 | > 10000 | > 10000 | > 1000 | > 2000 | > 10000 | > 300 | > 5000 | > 10000 | 1280 | > 10000 | > 1 | > 10000 | > 1000 | > 3000 | > 10000 | > 1000 | > 10000 | > 10000 | > 1000 | > 300 | > 1000 | > 10000 | > 10000 | > 10000 | > 10000 | > 1000 | > 1000
4 | COR-L95 (Small Cell Lung Carcinoma) | > 20000 | > 3000 | > 10000 | > 1000 | > 300 | > 10000 | > 1000 | > 10000 | > 10000 | > 10000 | > 1000 | > 2000 | > 10000 | 14.9 | > 5000 | > 10000 | > 3000 | > 10000 | > 1 | > 10000 | 392 | > 3000 | > 10000 | > 1000 | > 10000 | > 10000 | 123 | > 300 | 150 | > 10000 | > 10000 | > 10000 | > 10000 | 7.32 | > 1000
5 | ES7 (Ewing's Sarcoma) | 12300 | 1070 | 7440 | 861 | 6.44 | > 10000 | > 1000 | 2000 | 2440 | > 10000 | 289 | > 2000 | 3820 | 1.13 | > 5000 | 3360 | 3.3 | > 10000 | > 1 | 3020 | > 1000 | > 3000 | > 10000 | 25.4 | 257 | 249 | 33 | > 300 | 38.8 | > 10000 | 7750 | 3870 | > 10000 | 204 | > 1000
